Source: paper PMC10096175, “An In Vitro Antimicrobial, Anticancer and Antioxidant Activity of N–[(2–Arylmethylthio)phenylsulfonyl]cinnamamide Derivatives” (Molecules, 2023)
≈ marks a conversion by molar mass, not a printed value. Read-outs that look alike come from different tables or passages of the source.

Experiments:
S. aureus ATCC 6538 = test: MIC determination, reference strain (microdilution); assay type: cell-based; settings: Staphylococcus aureus, ATCC6538; S. aureus ATCC 6538; ± SD; Co-trimoxazole as sulfamethoxazole/trimethoprim; read-out: MIC
[1] = tested on: Staphylococcus sp. and Enterococcus sp.; test: MIC, summary statements on reference Gram-positive cocci; assay type: cell-based; settings: Staphylococcus and Enterococcus species, reference Gram-positive cocci (range over strains)
Protocol: Sterile sheep blood defibrinated (GrasoBiotech). Co-trimoxazole (composition sulfamethoxazole 400 mg/trimethoprim 80 mg; WZF Polfa Poland). Ketoconazole (WZF Polfa Poland). Bacteria: Enterococcus hirae ATCC 10541 and Enterococcus faecalis ATCC 51299, Staphylococcus epidermidis ATCC 14990, Staphylococcus aureus ATCC 6538, clinical strains Staphylococcus aureus MRSA, clinical strains Staphylococcus sp. (MRCNS), clinical strain Staphylococcus epidermidis MRSE, clinical strain Enterococcus sp., Corynebacterium diphtheriae ZMF, Bacillus subtilis ATCC 6633, Escherichia coli ATCC 8739, Candida albicans ATCC 10231. Brain-heart infusion broth (BHI, Becton Dickinson) for Enterococcus hirae ATCC 10541 and Enterococcus faecalis ATCC 51299, BHI supplement with 10% bovine serum for Bacillus subtilis, Corynebacterium diphtheriae ZMF, Staphylococcus epidermidis ATCC 14990, Staphylococcus aureus ATCC 6538, clinical strains Staphylococcus aureus MRSA, clinical strains Staphylococcus sp. (CNS), clinical strain Staphylococcus epidermidis MRSE grew in Mueller-Hinton broth (MH cation-adjusted, Becton Dickinson) in an aerobic atmosphere at 37 °C for 48 h, in an aerobic atmosphere at 37 °C for 72 h. Candida albicans grew in Sabourauda broth (Sb, Becton Dickinson), in an aerobic atmosphere at 37 °C for 72 h. After determination of the bacterial viability, BHI blood agar plates, MH agar plates, and Sb agar plates were used.
The MIC determination for the reference and clinical strains was performed based on the methodology described by Kula et al.. The dry test samples were dissolved in dimethyl sulfoxide (DMSO) and diluted in water, resulting in a finale concentration of about 500 µg/mL. These solutions were diluted and added to the first well of each microtiter line. Dilution in geometric progression was done by transferring the mixture/dilution (100 μL) from the first to the twelfth well. An aliquot (100 μL) was discarded from the twelfth well. The final concentration of the samples used in the antimicrobial activity assay ranged from 125 to 0.006 µg/mL. Co-trimoxazole (for bacteria), with the composition sulfamethoxazole 400 mg/trimethoprim 80 mg was used as a reference compound in the concentration range of 20 000/4000 to 1/0.2 µg/mL. Ketoconazole (for fungi) was used as a reference compound in the concentration range of 125 to 0.006 µg/mL. Tests were incubated in adequate conditions described by Kula et al.. Diluent concentration had no effect on the activity of the tested compounds. All experiments were carried out three times.

[2] = tested on: cancer cells (HeLa, SKOV-3, MCF-7); test: MTT assay, summary statements on the cancer cells; assay type: cell-based; settings: Homo sapiens, cell line not specified
C. diphtheriae = test: MIC determination, reference strain (microdilution); assay type: cell-based; settings: Corynebacterium diphtheriae; C. diphtheriae; Co-trimoxazole as sulfamethoxazole/trimethoprim; read-out: MIC
B. subtilis ATCC 6633 = test: as above; assay type: cell-based; settings: Bacillus subtilis, ATCC6633; B. subtilis ATCC 6633; Co-trimoxazole as sulfamethoxazole/trimethoprim; read-out: MIC
DPPH assay = settings: DPPH radical scavenging; 40 min, room temperature
Protocol: The DPPH assay was performed spectrophotometrically. The amount of 30 µL of different concentrations of samples, dissolved in methanol/DMSO (9/1 v/v), was mixed with 170 µL of 0.06 mM DPPH methanolic solution and completed with methanol to a final volume of 300 µL. DPPH methanolic solution with methanol/DMSO (9/1 v/v) was used as a control. After 40 min of incubation at room temperature in the dark, the absorbance was analyzed at λ = 510 nm by a 96-well microplate reader (Epoch, BioTek System, Santa Clara, CA, USA). Ascorbic acid was used as a standard.
DPPH inhibition was calculated by the following equation:DPPH Inhibition (%) = [Acontrol − Asample)/Acontrol] × 100%
(§1) IC50 values of the samples were calculated using program GraFit v. 7.0 (Erithacus Software). The analysis was performed three times, with tree replications in each (n = 9). Statistical analysis was performed with one-way ANOVA with Tuckey’s post-hoc test.

HeLa cells = test: MTT assay; assay type: cell-based, human; settings: for IC50: HeLa, MTT, 24 h treatment; for Selectivity index (SI): IC50 HEK-293 / IC50 HeLa
E. hirae ATCC 10541 = test: MIC determination, reference strain (microdilution); assay type: cell-based; settings: Enterococcus hirae, ATCC10541; E. hirae ATCC 10541; Co-trimoxazole as sulfamethoxazole/trimethoprim; read-out: MIC
SKOV-3 cells = test: MTT assay; assay type: cell-based, human; settings: for IC50: Homo sapiens, SK-OV-3, SKOV-3, MTT, 24 h treatment, read-out: IC50; for Selectivity index (SI): IC50 HEK-293 / IC50 SKOV-3
MCF-7 cells = test: MTT assay; assay type: cell-based, human; settings: for IC50: Homo sapiens, MCF7, MCF-7, MTT, 24 h treatment, read-out: IC50; for Selectivity index (SI): IC50 HEK-293 / IC50 MCF-7
E. coli ATCC 8739 = test: MIC determination, reference strain (microdilution); assay type: cell-based; settings: Escherichia coli, ATCC8739; E. coli ATCC 8739; Co-trimoxazole as sulfamethoxazole/trimethoprim; read-out: MIC
ABTS assay = settings: ABTS radical scavenging; 10 min, 30 °C
Protocol: The ABTS assay was performed spectrophotometrically. […] ABTS solution with methanol/DMSO (9/1 v/v) was used as a control. After 10 min of incubation at 30 °C in the dark, the absorbance was analyzed at λ = 750 nm by a 96-well microplate reader (Epoch, BioTek System, Santa Clara, CA, USA). Ascorbic acid was used as a standard.
ABTS inhibition was calculated by the following equation:ABTS Inhibition (%) = [Acontrol − Asample)/Acontrol] × 100%
as §1

C. albicans ATCC 10231 = test: MIC determination, reference fungal strain (microdilution); assay type: cell-based; settings: Candida albicans, ATCC10231; C. albicans ATCC 10231; read-out: MIC
E. faecalis ATCC 51299 = test: MIC determination, reference strain (microdilution); assay type: cell-based; settings: Enterococcus faecalis, ATCC51299; E. faecalis ATCC 51299; Co-trimoxazole as sulfamethoxazole/trimethoprim; read-out: MIC
HEK-293 cells = test: MTT assay, noncancerous cells; assay type: cell-based; settings: Homo sapiens, HEK293; HEK-293; MTT, 24 h treatment; read-out: IC50
[3] = tested on: S. epidermidis ATCC 14990; test: MIC determination, reference strain (microdilution); assay type: cell-based; settings: Staphylococcus epidermidis, ATCC14990; S. epidermidis ATCC 14990; Co-trimoxazole as sulfamethoxazole/trimethoprim; read-out: MIC
[4] = tested on: clinical strains of Enterococcus sp.; test: MIC on clinical Enterococcus strains; assay type: cell-based; settings: Enterococcus sp. 3937152; read-out: MIC
in vitro = settings: sheep, defibrinated sheep blood diluted 1:9 v/v with PBS, pH 7
[5] = Homo sapiens, 24 h, read-out: IC50

MIC (S. aureus ATCC 6538) | IC50 ([2]; MTT) | IC50 ([2]; µg/mL bound converted) | MIC (C. diphtheriae) | MIC (B. subtilis ATCC 6633) | IC50 DPPH (DPPH assay) | IC50 (HeLa cells; [5]) | MIC (E. hirae ATCC 10541) | IC50 (SKOV-3 cells) | IC50 (MCF-7 cells) | MIC (E. coli ATCC 8739) | IC50 ABTS (ABTS assay) | MIC (C. albicans ATCC 10231) | MIC (E. faecalis ATCC 51299) | MIC [3] | SMILES | Selectivity index (SI) (HeLa cells) | Selectivity index (SI) (SKOV-3 cells) | Selectivity index (SI) (MCF-7 cells) | IC50 (HEK-293 cells) | also measured
1 ± 0.29 µg/mL (≈ 1.9 µM) | < 10 µg/mL | ≤ 20 µM | > 125 µg/mL | 62.5 ± 0.29 µg/mL (≈ 119 µM) | 620.47 ± 0.67 µg/mL (≈ 1180 µM) | 11.2 ± 0.2 µg/mL (≈ 21.3 µM) | 2 ± 0.58 µg/mL (≈ 3.8 µM) | 9.28 ± 1.02 µg/mL (≈ 17.6 µM) | 11.2 ± 0.08 µg/mL (≈ 21.3 µM) | > 125 µg/mL | 622.23 ± 2.25 µg/mL (≈ 1180 µM) | > 125 µg/mL | 2 ± 0.58 µg/mL (≈ 3.8 µM) | 2 ± 0.58 µg/mL (≈ 3.8 µM) | Cc1cc(S(=O)(=O)NC(=O)/C=C/c2ccc(F)cc2)c(SCc2cccc3ccccc23)cc1Cl [Compound 16c, (E)–N–{4–Chloro–5–methyl–2–[(naphthalen–1–yl)methylthio]phenylsulfonyl}–3–(4–fluorophenyl)acrylamide] | 0.7 | 0.8 | 0.7 | 7.67 ± 0.21 µg/mL (≈ 14.6 µM) | MIC [1]: 1 to 2 µg/mL (≈ 1.9 to 3.8 µM)
4 ± 0.16 µg/mL (≈ 6.88 µM) | < 10 µg/mL | ≤ 20 µM | 62.5 ± 0.29 µg/mL (≈ 107 µM) | 125 ± 0.29 µg/mL (≈ 215 µM) | 574.41 ± 1.34 µg/mL (≈ 988 µM) | < 10 µg/mL | 8 ± 0.15 µg/mL (≈ 13.8 µM) | 15.3 ± 0.16 µg/mL (≈ 26.4 µM) | 16.3 ± 0.27 µg/mL (≈ 28.1 µM) | > 125 µg/mL | 419.18 ± 2.72 µg/mL (≈ 721 µM) | > 125 µg/mL | 8 ± 0.15 µg/mL (≈ 13.8 µM) | 2 ± 0.76 µg/mL (≈ 3.44 µM) | Cc1cc(S(=O)(=O)NC(=O)/C=C/c2ccc([N+](=O)[O-])cc2)c(SCc2cc3c(cc2Cl)OCO3)cc1Cl [Compound 17d, (E)–N–{4–Chloro–2–[(6–chlorobenzo[d][1,3]dioxol–5–yl)methylthio]–5–methylphenylsulfonyl}–3–(4–nitrophenyl)acrylamide] | 1.5 | 1.0 | 0.9 | 15.4 ± 0.69 µg/mL (≈ 26.4 µM) | MIC [4]: > 125 µg/mL; IC50 (HeLa cells): 9.99 ± 0.08 µg/mL (≈ 17.2 µM); hemolysis at 24 h, 31.25 µg/mL (in vitro): 12 to 20%
